According to patent US20250032478A1 (SURGE Therapeutics, Inc., priority 2021, published 2025):

Columns and labels:
[1] = system: 4T1-Luc2 breast cancer cells; assay: Survival of tumor resection mice, composition placed at tumor resection site; assay type: in vivo, female BALB/c mice
Description: 4T1-Luc2 breast cancer cells were cultured in RPMI-1640 medium, with 10% fetal bovine serum (FBS) and 1% penicillin/streptomycin. All cells were cultured in a 37° C. in a humidified incubator, with 5% Co2.
All animal experiments were performed using 6-8 weeks old female BALB/c mice (Jackson Laboratories, #000651). For animal survival studies, 10^5 4T1-Luc2 cells were inoculated orthotopically into the fourth mammary fat pad of a mouse. Mice were size-matched and randomly assigned to treatment groups, and surgery was performed on day 10 or day 12 after tumor inoculation. Tumor sizes were measured with calipers. For primary tumor resection, mice were anesthetized with 2% isoflurane, the tumor was resected, and a hydrogel was placed in the surgical site at the time of surgery.
In some embodiments, female BALB/cJs mice were inoculated orthotopically with 100,000 breast cancer cells (e.g., 4T1-Luc2 cells).

[2] = Visual solubility assessment of Resiquimod Form I; assay type: physicochemical; details: room temperature
[3] = Hygroscopicity of solid form; assay type: physicochemical
[4] = Solubility in sodium phosphate buffered saline comprising 10 wt % poloxamer 407; assay type: physicochemical
[5] = in polymer combination of 8-12.5% or 6-11% (w/w) poloxamer (e.g. 10% P407) and 1-5% (w/w) HA (e.g. 4% HA 119 KDa), at tumor resection site, FIG. 29

CCOCc1nc2c(N)nc3ccccc3c2n1CC(C)(C)O [resiquimod, Resiquimod]
efficacy vs chemically-crosslinked hyaluronic acid hydrogel (HyStem) incorporated with resiquimod ([1]; in crosslinked hydrogel of 8-13.5% (w/w) Poloxamer (e.g. 10% P407) and 0.6-1.5% (w/w) HA (e.g. 1% HA 1.5 MDa), FIG. 27A-E): comparable to or better than
survival time longer than control group receiving the hydrogel without resiquimod ([1]; in crosslinked hydrogel of 8-13.5% or 6-11% (w/w) Poloxamer (e.g. 10% P407) and 0.6-1.5% (w/w) HA (e.g. 1% HA 1.5 MDa), at tumor resection site, FIG. 27A-E): at least 50%
survival rate vs control group receiving the hydrogel without resiquimod ([1]; in crosslinked hydrogel of 8-13.5% or 6-11% (w/w) Poloxamer and 0.6-1.5% (w/w) HA, at tumor resection site, FIG. 27A-E): much higher survival rate
survival time vs control group receiving polymer combination without resiquimod ([1]; in polymer combination of 8-12.5% or 6-11% (w/w) poloxamer (e.g. 8%, 10% or 12.5% P407) and 1.2-2.75% (w/w) HA (e.g. 1.625% or 2.25% HA 730 KDa), at tumor resection site, FIG. 28A-D): survived over a longer period of time
survival rate vs control group receiving polymer combination without resiquimod [1, 5]: higher survival rate
survival time vs control group receiving polymer combination without resiquimod [1, 5]: survived over a longer period of time
survival rate vs control group receiving polymer combination without resiquimod ([1]; in polymer combination of 8-12.5% or 6-11% (w/w) poloxamer and 1.2-2.75% (w/w) HA 730 KDa, at tumor resection site, FIG. 28A-D): higher survival rate

CCOCc1nc2c(N)nc3ccccc3c2n1CC(C)(C)O [Resiquimod Form I, Resiquimod]
Observation (visual solubility) ([2]; 1-Butanol, 0.5 mL added to 10 mg): Light hazy solution
Observation (visual solubility) ([2]; 1-Propanol, 0.5 mL added to 10 mg): Light hazy solution
Observation (visual solubility) ([2]; 2-Butanol, 0.5 mL added to 10 mg): Light hazy solution
Observation (visual solubility) ([2]; 2-Ethoxyethanol, 0.25-0.5 mL added to 10 mg): Light hazy solution throughout
Observation (visual solubility) ([2]; 2-Methoxyethanol, 0.25-0.5 mL added to 10 mg): Light hazy solution throughout
Observation (visual solubility) ([2]; 2-Methyl THF, 0.25 mL added to 10 mg): Clear solution
Observation (visual solubility) ([2]; 2-Propanol, 0.5 mL added to 10 mg): Suspension
Observation (visual solubility) ([2]; Acetone, 0.5 mL added to 10 mg): Suspension
Observation (visual solubility) ([2]; Acetonitrile, 0.5 mL added to 10 mg): Suspension
Observation (visual solubility) ([2]; Amyl alcohol, 0.5 mL added to 10 mg): Light hazy solution
Observation (visual solubility) ([2]; Anisole, 0.5 mL added to 10 mg): Suspension
Observation (visual solubility) ([2]; CPME, 0.5 mL added to 10 mg): Suspension
Observation (visual solubility) ([2]; Chloroform, 0.5 mL added to 10 mg): Light hazy solution
Observation (visual solubility) ([2]; Cyclohexane, 0.5 mL added to 10 mg): Suspension
Observation (visual solubility) ([2]; DMP, 0.5 mL added to 10 mg): Suspension
Observation (visual solubility) ([2]; Dichloromethane, 0.5 mL added to 10 mg): Light hazy solution
Observation (visual solubility) ([2]; Diethyl ether, 0.5 mL added to 10 mg): Suspension
Observation (visual solubility) ([2]; Ethanol, 0.25-0.5 mL added to 10 mg): Light hazy solution throughout
Observation (visual solubility) ([2]; Ethyl acetate, 0.5 mL added to 10 mg): Suspension
Observation (visual solubility) ([2]; Heptane, 0.5 mL added to 10 mg): Suspension
Observation (visual solubility) ([2]; Hexane, 0.5 mL added to 10 mg): Suspension
Observation (visual solubility) ([2]; Isobutanol, 0.5 mL added to 10 mg): Light hazy solution
Observation (visual solubility) ([2]; Isobutyl acetate, 0.5 mL added to 10 mg): Suspension
Observation (visual solubility) ([2]; Isopropyl acetate, 0.5 mL added to 10 mg): Suspension
Observation (visual solubility) ([2]; MEK, 0.5 mL added to 10 mg): Suspension
Observation (visual solubility) ([2]; MIBK, 0.5 mL added to 10 mg): Suspension
Observation (visual solubility) ([2]; MIPK, 0.5 mL added to 10 mg): Suspension
Observation (visual solubility) ([2]; MTBE, 0.5 mL added to 10 mg): Suspension
Observation (visual solubility) ([2]; Methanol, 0.25-0.5 mL added to 10 mg): Light hazy solution throughout
Observation (visual solubility) ([2]; Methyl acetate, 0.5 mL added to 10 mg): Suspension
Observation (visual solubility) ([2]; Nitromethane, 0.5 mL added to 10 mg): Suspension
Observation (visual solubility) ([2]; Octane, 0.5 mL added to 10 mg): Suspension
Observation (visual solubility) ([2]; Pentane, 0.5 mL added to 10 mg): Suspension
Observation (visual solubility) ([2]; Petroleum Ether, 0.5 mL added to 10 mg): Suspension
Observation (visual solubility) ([2]; Propylene glycol, 0.25-0.5 mL added to 10 mg): Light hazy solution throughout
Observation (visual solubility) ([2]; THF, 0.25-0.5 mL added to 10 mg): Light hazy solution
Observation (visual solubility) ([2]; Toluene, 0.5 mL added to 10 mg): Suspension
Observation (visual solubility) ([2]; Water, 0.5 mL added to 10 mg): Suspension
Observation (visual solubility) ([2]; Xylene, 0.5 mL added to 10 mg): Suspension
Observation (visual solubility) ([2]; p-Dioxane, 0.5 mL added to 10 mg): Light hazy solution
hygroscopicity [3]: notably low hygroscopicity
solubility [4]: increased solubility
